Data set [1] addresses T1, gastric inhibitory peptide receptor (GIPR) (Homo sapiens, UniProt P48546).
T1 sequence (P48546 22-466): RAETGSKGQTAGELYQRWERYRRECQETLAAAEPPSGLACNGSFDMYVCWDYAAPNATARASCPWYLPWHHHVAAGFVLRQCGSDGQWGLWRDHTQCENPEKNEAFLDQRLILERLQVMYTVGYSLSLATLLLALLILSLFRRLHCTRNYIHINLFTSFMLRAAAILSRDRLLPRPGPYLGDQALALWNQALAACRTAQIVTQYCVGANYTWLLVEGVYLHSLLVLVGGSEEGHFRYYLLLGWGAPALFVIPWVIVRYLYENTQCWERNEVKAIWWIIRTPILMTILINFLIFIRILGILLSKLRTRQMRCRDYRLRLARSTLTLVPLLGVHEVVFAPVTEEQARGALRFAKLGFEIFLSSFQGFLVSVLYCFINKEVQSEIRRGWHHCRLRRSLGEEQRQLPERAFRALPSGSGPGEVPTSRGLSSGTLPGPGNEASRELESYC
Description: cAMP pharmacological functional assay in presence of casein, hGIPR. Type of data set: cell-based.

The next data set addresses T2, human Gcg receptor (Homo sapiens, UniProt P47871).
T2 construct: expressed in transfected cells; crude membranes
Description: [125I]-Glucagon binding (SPA), human Gcg receptor. Summed up: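 Crude membranes from cells expressing the receptor, prepared by hypotonic lysis in 50 mM Tris HCl pH 7.5 with protease inhibitors, homogenization and differential centrifugation, were used in a WGA-bead SPA. Binding buffer: 25 mM HEPES pH 7.4, 2.5 mM CaCl2, 1 mM MgCl2, bacitracin, Tween-20.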

The next data set concerns the target T3, human GIP receptor (Homo sapiens, UniProt P48546).
T3 construct: expressed in transfected cells; crude membranes
T3 sequence (P48546 22-466): T1 sequence (P48546 22-466)
Description: [125I]-GIP binding (SPA), human GIP receptor.

The target of data set [2] is human GLP-1 receptor (GLP-1R) (Homo sapiens, UniProt P43220). Description: cAMP pharmacological functional assay in presence of casein, hGLP-1R. The data set is classed as cell-based.
human GLP-1 receptor (GLP-1R), sequence (P43220 24-463): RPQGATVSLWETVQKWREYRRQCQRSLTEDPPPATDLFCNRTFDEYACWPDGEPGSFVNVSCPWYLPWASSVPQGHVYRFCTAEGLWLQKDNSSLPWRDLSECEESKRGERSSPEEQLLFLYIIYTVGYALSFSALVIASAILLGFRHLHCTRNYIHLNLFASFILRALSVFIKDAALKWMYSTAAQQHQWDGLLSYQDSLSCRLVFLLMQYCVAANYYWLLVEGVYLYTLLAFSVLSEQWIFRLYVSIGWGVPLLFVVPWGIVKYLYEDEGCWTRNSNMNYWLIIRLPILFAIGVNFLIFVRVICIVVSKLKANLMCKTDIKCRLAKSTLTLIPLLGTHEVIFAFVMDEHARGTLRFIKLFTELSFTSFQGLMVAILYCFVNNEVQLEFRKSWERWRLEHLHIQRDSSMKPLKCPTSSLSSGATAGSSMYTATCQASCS
The target of data set [3] is T4, human GLP-1R (Homo sapiens, UniProt P43220). The data set is described as follows: [125I]-GLP-1 binding (SPA), human GLP-1 receptor. Set-up: expressed in transfected cells; crude membranes. The method, boiled down:
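Frozen cell pellets are lysed on ice in hypotonic Tris buffer, pH 7.5, homogenized, and centrifuged to a membrane pellet resuspended at about 1 to 3 mg/mL. Binding is then measured in HEPES-based buffer at pH 7.4, and curves are fitted to give IC50 and Ki.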

Data set [4] has as its target T4, human GLP-1R. The data set is described as follows: GLP-1R HEK293 cell membrane [35S]GTPγS binding assay. The data set is classed as biochemical. Also noted: expressed in transfected cells; host or cells: HEK293 cells expressing human GLP-1R; membranes. Summed up:
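Agonist-driven Gαs activation read as [35S]GTPγS ([…]) binding to receptor-expressing HEK293 membranes, 30 min at room temperature, pH 7.4. Detection by anti-Gαs immunocapture on scintillation beads; EC50 derived from four-parameter logistic concentration-response fit.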

Data set [5] can be described thus: Proteolytic stability assay in 90% pig small intestinal fluid (pSIF). Type of data set: in vitro ADME. The settings on record: 90% pSIF, 37° C. The protocol: Peptides are diluted to a concentration of 0.4 mg/mL in 90% pig small intestinal fluid. After the mixing, 20 μL are immediately removed (time 0 for the time point of pre-incubation). The mixture is then incubated at 37° C. at 150 rpm. […] The sample is centrifuged at 20,000×g for 20 min at 4° C.
The data analysis is performed using MassLynx.

T4 sequence (P43220 24-463): as above
T2 sequence (P47871 26-477): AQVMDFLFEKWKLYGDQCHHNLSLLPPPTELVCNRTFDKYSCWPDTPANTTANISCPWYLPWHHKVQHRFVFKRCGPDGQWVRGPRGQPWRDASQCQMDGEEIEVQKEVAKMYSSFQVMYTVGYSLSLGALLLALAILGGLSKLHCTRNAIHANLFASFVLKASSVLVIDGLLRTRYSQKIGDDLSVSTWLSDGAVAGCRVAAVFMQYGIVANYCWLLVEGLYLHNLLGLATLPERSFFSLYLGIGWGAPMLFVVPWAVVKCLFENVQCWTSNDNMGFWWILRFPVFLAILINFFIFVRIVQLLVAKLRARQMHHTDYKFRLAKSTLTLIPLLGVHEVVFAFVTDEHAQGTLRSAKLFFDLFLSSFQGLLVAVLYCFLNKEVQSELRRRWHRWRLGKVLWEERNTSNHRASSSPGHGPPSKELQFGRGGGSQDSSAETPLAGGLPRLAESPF

For orientation: EC50 means the concentration at which the effect is half-maximal. By Ki is commonly meant a measure of affinity in units of concentration, obtained from inhibition or displacement. Higher therefore signals a looser hold on the target. Regarding `CC[C@H](C)[C@H](NC(=O)[C@H](CC(C)C)NC(=O)[C@](C)(Cc1ccc(O)cc1)NC(=O)[C@@H](CCC(=O)O)NC(=O)[C@@H](NC(=O)[C@H](Cc1ccccc1)NC(=O)[C@H](CCC(=O)O)NC(=O)C(C)(C)NC(=O)[C@H](CCC(N)=O)NC(=O)[C@H](C)NC(=O)[C@H](CCCCNC(=O)COCCOCCNC(=O)COCCOCCNC(=O)CC[C@H](NC(=O)CCCCCCCCCCCCCCCCC(=O)O)C(=O)O)NC(=O)[C@H](CCCN)NC(=O)[C@H](CC(=O)O)NC(=O)[C@H](CC(C)C)NC(=O)[C@](C)(CC(C)C)NC(=O)[C@@H](NC(=O)[C@H](CO)NC(=O)[C@@H](NC(=O)[C@H](CC(=O)O)NC(=O)[C@H](CO)NC(=O)[C@@H](NC(=O)[C@](C)(Cc1ccccc1F)NC(=O)[C@@H](NC(=O)CNC(=O)[C@H](CCC(=O)O)NC(=O)C(C)(C)NC(=O)[C@@H](N)Cc1ccc(O)cc1)[C@@H](C)O)[C@@H](C)O)C(C)C)[C@@H](C)CC)[C@@H](C)CC)C(=O)N[C@@H](CCC(=O)O)C(=O)NCC(=O)NCC(=O)N1CCC[C@H]1C(=O)N[C@@H](CO)C(=O)N[C@@H](CO)C(=O)NCC(=O)N[C@@H](C)C(=O)N1CCC[C@H]1C(=O)N1CCC[C@H]1C(=O)N1CCC[C@H]1C(=O)N[C@@H](CO)C(N)=O` [Example 5], the figures for the EC50 (in data set [1]; in data set [2]; on human GLP-1R [4]) were 30.9 pM, 16.4 pM and 196 pM, respectively. Moreover, the Ki on human Gcg receptor came out at 519000 pM; at human GIP receptor, 61.1 pM; on human GLP-1R [3], 902 pM. In addition, the “percentage of peptide not cleaved using pSIF” value in data set [5] (0 min) stood at 100%. Besides, the remaining at 0.5 h, 0.4 mg/mL in data set [5] (pig, 90% pig small intestinal fluid (pSIF), 30 min, read-out: percentage of peptide not cleaved using pSIF) worked out at 76.9%. The remaining at 0.75 h, 0.4 mg/mL in data set [5] (pig, 90% pig small intestinal fluid (pSIF), 45 min, read-out: percentage of peptide not cleaved using pSIF) amounted to 56.8%. Also, the remaining at 1 h, 0.4 mg/mL in data set [5] (pig, 90% pig small intestinal fluid (pSIF), 60 min, read-out: percentage of peptide not cleaved using pSIF) came to 60.7%.

For the origin of these results see US12252524B2, “GIP/GLP1 co-agonist compounds” (Eli Lilly and Company, priority 2018, dated 2025).
